Data taken from patent publication US6472418B1, “Non-peptide NK1 receptors antagonists” (Warner-Lambert Company, priority 1998, dated 2002).

Molecular target: T1, Human NK1 Receptor (Homo sapiens, UniProt P25103)
T1 construct: endogenous in cells; host or cells: Human lymphoma IM9 cells (whole cells)
Test: In Vitro Human NK1 Receptor Binding Assay ([125I]Bolton-Hunter substance P displacement, IM9 cells)
Conditions: Human lymphoma IM9 cells, [125I]Bolton-Hunter substance P; Table 3, array-synthesis products; read-out: IC50 (nM) hNK1
Procedure, shortened: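 Test compounds competed with 0.05-0.1 nM [125I]Bolton-Hunter substance P for binding to intact IM9 cells over 50 min at 21° C, pH 7.4 buffer with MnCl2 and peptidase inhibitors. […] [Sar9, Met(O2)11] substance P gave non-specific binding. Bound counts were measured after filtration and fitted iteratively.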

T1 sequence (P25103 whole entry): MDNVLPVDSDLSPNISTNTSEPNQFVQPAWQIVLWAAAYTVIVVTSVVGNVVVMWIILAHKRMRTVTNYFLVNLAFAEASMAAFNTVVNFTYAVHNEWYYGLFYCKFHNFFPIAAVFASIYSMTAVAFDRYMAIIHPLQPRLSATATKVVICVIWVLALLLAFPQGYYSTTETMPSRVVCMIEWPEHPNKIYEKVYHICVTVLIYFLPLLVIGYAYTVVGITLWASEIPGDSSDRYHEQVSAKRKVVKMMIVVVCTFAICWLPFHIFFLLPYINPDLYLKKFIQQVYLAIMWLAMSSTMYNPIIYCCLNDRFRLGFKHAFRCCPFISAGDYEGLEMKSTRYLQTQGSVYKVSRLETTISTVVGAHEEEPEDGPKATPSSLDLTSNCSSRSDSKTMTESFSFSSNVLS

Row | Molecule | IC50
1 | O=C(NCc1ccccc1Cl)C(Cc1c[nH]c2ccccc12)NCc1cc2ccccc2o1 (stereo not shown) [Example 298, 2-[(Benzofuran-2-ylmethyl)-amino]-N-(2-chloro-benzyl)-3-(1H-indol-3-yl)-propionamide] | 221 nM
2 | O=C(NCCN1CCNCC1)C(Cc1c[nH]c2ccccc12)NCc1cc2ccccc2o1 (stereo not shown) [Example 193, 2-[(Benzofuran-2-ylmethyl)-amino]-3-(1H-indol-3-yl)-N-(2-piperazin-1-yl-ethyl)-propionamide] | > 10000 nM
3 | O=C(NCc1ccc(F)cc1)C(Cc1c[nH]c2ccccc12)NCc1cc2ccccc2o1 (stereo not shown) [Example 244, 2-[(Benzofuran-2-ylmethyl)-amino]-N-(4-fluoro-benzyl)-3-(1H-indol-3-yl)-propionamide] | 12 nM
4 | O=C(NC1CCCCC1O)C(Cc1c[nH]c2ccccc12)NCc1cc2ccccc2o1 (stereo not shown) [Example 270, 2-[(Benzofuran-2-ylmethyl)-amino]-N-(2-hydroxy-cyclohexyl)-3-(1H-indol-3-yl)-propionamide] | > 10000 nM
5 | O=C(NC1CCc2ccccc21)C(Cc1c[nH]c2ccccc12)NCc1cc2ccccc2o1 (stereo not shown) [Example 195, 2-[(Benzofuran-2-ylmethyl)-amino]-N-indan-1-yl-3-(1H-indol-3-yl)-propionamide] | 1750 nM
6 | O=C(NCCc1c[nH]c2ccccc12)C(Cc1c[nH]c2ccccc12)NCc1cc2ccccc2o1 (stereo not shown) [Example 280, 2-[(Benzofuran-2-ylmethyl)-amino]-3-(1H-indol-3-yl)-N-[2-(1H-indol-3-yl)-ethyl]-propionamide] | 2540 nM
7 | O=C(NCCc1ccccc1)C(Cc1c[nH]c2ccccc12)NCc1cc2ccccc2o1 (stereo not shown) [Example 246, 2-[(Benzofuran-2-ylmethyl)-amino]-3-(1H-indol-3-yl)-N-phenethyl-propionamide] | 77 nM

Same assay, conditions: Table 4; [125I]Bolton-Hunter substance P displacement, human IM9 cells; read-out: IC50 (nM) hNK1

Row | Molecule | IC50
8 | CC(NC(=O)C(C)(Cc1c[nH]c2ccccc12)NCc1ccc(C=Cc2ccccc2)cc1)c1ccccc1 (stereo not shown) [compound 351, 3-(1H-Indol-3-yl)-2-methyl-N-(1-phenyl-ethyl)-2-(4-styryl-benzylamino)-propionamide] | > 10000 nM
9 | CC(C)C=CCC1=CCC(CNC(C)(Cc2c[nH]c3ccccc23)C(=O)NC(C)c2ccccc2)CC1 (stereo not shown) [compound 328, 3-(1H-Indol-3-yl)-2-methyl-2-{[4-(4-methyl-pent-2-enyl)-cyclohex-3-enylmethyl]-amino}-N-(1-phenyl-ethyl)-propionamide] | > 10000 nM
10 | CC(NC(=O)C(C)(Cc1c[nH]c2ccccc12)NCc1cncc2ccccc12)c1ccccc1 (stereo not shown) [compound 318, 3-(1H-Indol-3-yl)-2-[(isoquinolin-4-ylmethyl)-amino]-2-methyl-N-(1-phenyl-ethyl)-propionamide] | 1600 nM
11 | CC(NC(=O)C(C)(Cc1c[nH]c2ccccc12)NCc1cc2ccccc2o1)c1ccccc1 (stereo not shown) [compound 343, 2-[(Benzofuran-2-ylmethyl)-amino]-3-(1H-indol-3-yl)-2-methyl-N-(1-phenyl-ethyl)-propionamide] | 13 nM
12 | CC(NC(=O)C(C)(Cc1c[nH]c2ccccc12)NCc1ccc(-c2ccc([N+](=O)[O-])cc2)o1)c1ccccc1 (stereo not shown) [compound 353, 3-(1H-Indol-3-yl)-2-methyl-2-{[5-(4-nitro-phenyl)-furan-2-ylmethyl]-amino}-N-(1-phenyl-ethyl)-propionamide] | 13 nM
13 | CC(NC(=O)C(C)(Cc1c[nH]c2ccccc12)NCc1ccco1)c1ccccc1 (stereo not shown) [compound 314, 2-[(Furan-2-ylmethyl)-amino]-3-(1H-indol-3-yl)-2-methyl-N-(1-phenyl-ethyl)-propionamide] | 141 nM
14 | CC(NC(=O)C(C)(Cc1c[nH]c2ccccc12)NCC=Cc1ccco1)c1ccccc1 (stereo not shown) [compound 322, 2-(3-Furan-2-yl-allylamino)-3-(1H-indol-3-yl)-2-methyl-N-(1-phenyl-ethyl)-propionamide] | 91 nM
15 | 2-(3-Benzo[1,3]dioxol-5-yl-allylamino)-3-(1H-indol-3-yl)-2-methyl-N-(1-phenyl-ethyl)-propionamide [compound 339] | 343 nM

Same assay, conditions: Table 5; [125I]Bolton-Hunter substance P displacement, human IM9 cells; read-out: IC50 (nM) hNK1

Row | Molecule | IC50
16 | CC(NC(=O)C(Cc1c[nH]c2ccccc12)NCc1ccccc1OCc1cccnc1)c1ccccc1 (stereo not shown) [compound 361] | 729 nM
17 | CC(NC(=O)C(Cc1c[nH]c2ccccc12)NCc1ccc2c(c1)Cc1ccccc1-2)c1ccccc1 (stereo not shown) [compound 391] | 846 nM
18 | Cc1cc(CNC(Cc2c[nH]c3ccccc23)C(=O)NC(C)c2ccccc2)c(C)n1-c1ccccc1 (stereo not shown) [compound 392] | > 10000 nM
19 | CC(NC(=O)C(Cc1c[nH]c2ccccc12)NCc1ccc(OCCCC(C)(C)C(=O)O)cc1)c1ccccc1 (stereo not shown) [compound 364] | 1250 nM
20 | CC(NC(=O)C(Cc1c[nH]c2ccccc12)NCc1ccsc1)c1ccccc1 (stereo not shown) [compound 404] | 2390 nM

Same assay, conditions: human NK1 receptor, IM9 cells, [125I]Bolton-Hunter substance P; read-out: IC50 (nM) hNK1

Row | Molecule | IC50
21 | CC(Cc1c[nH]c2ccccc12)(NCc1cc2ccccc2o1)C(=O)NCCN1CCCCC1 (stereo not shown) [compound 125, 2-[(Benzofuran-2-ylmethyl)-amino]-3-(1H-indol-3-yl)-2-methyl-N-(2-piperidin-1-yl-ethyl)-propionamide] | > 10000 nM
22 | CC(Cc1c[nH]c2ccccc12)(NCc1cc2ccccc2o1)C(=O)NCCc1ccco1 (stereo not shown) [compound 115, 2-[(Benzofuran-2-ylmethyl)-amino]-N-(2-furan-2-yl-ethyl)-3-(1H-indol-3-yl)-2-methyl-propionamide] | 154 nM
23 | CC(Cc1c[nH]c2ccccc12)(NCc1cc2ccccc2o1)C(=O)NC1CCc2ccccc2C1 (stereo not shown) [compound 111, 2-[(Benzofuran-2-ylmethyl)-amino]-3-(1H-indol-3-yl)-2-methyl-N-(1,2,3,4-tetrahydro-naphthalen-2-yl)-propionamide] | > 10000 nM
24 | Cc1cc(C)c(CNC(=O)C(C)(Cc2c[nH]c3ccccc23)NCc2cc3ccccc3o2)cn1 (stereo not shown) [compound 169, 2-[(Benzofuran-2-ylmethyl)-amino]-N-(4,6-dimethyl-pyridin-3-ylmethyl)-3-(1H-indol-3-yl)-2-methyl-propionamide] | 6020 nM
25 | CC(NC(=O)C(C)(Cc1c[nH]c2ccccc12)NCc1cc2ccccc2o1)c1ccsc1 (stereo not shown) [compound 41, 2-[(Benzofuran-2-ylmethyl)-amino]-3-(1H-indol-3-yl)-2-methyl-N-(1-thiophen-3-yl-ethyl)-propionamide] | 19 nM
26 | CC(Cc1c[nH]c2ccccc12)(NCc1cc2ccccc2o1)C(=O)NCc1ccc(N)cc1 (stereo not shown) [compound 62, N-(4-Amino-benzyl)-2-[(benzofuran-2-ylmethyl)-amino]-3-(1H-indol-3-yl)-2-methyl-propionamide] | 837 nM
27 | CC(Cc1c[nH]cn1)NC(=O)C(C)(Cc1c[nH]c2ccccc12)NCc1cc2ccccc2o1 (stereo not shown) [compound 90, 2-[(Benzofuran-2-ylmethyl)-amino]-N-[2-(1H-imidazol-4-yl)-1-methyl-ethyl]-3-(1H-indol-3-yl)-2-methyl-propionamide] | > 10000 nM
28 | CC1CCCC(C)N1CCCCNC(=O)C(C)(Cc1c[nH]c2ccccc12)NCc1cc2ccccc2o1 (stereo not shown) [compound 88, 2-[(Benzofuran-2-ylmethyl)-amino]-N-[4-(2,6-dimethyl-piperidin-1-yl)-butyl]-3-(1H-indol-3-yl)-2-methyl-propionamide] | > 10000 nM
29 | CC(Cc1c[nH]c2ccccc12)(NCc1cc2ccccc2o1)C(=O)NCc1ccc(Cl)c(Cl)c1 (stereo not shown) [compound 175, 2-[(Benzofuran-2-ylmethyl)-amino]-N-(3,4-dichloro-benzyl)-3-(1H-indol-3-yl)-2-methyl-propionamide] | 96 nM
30 | CC(Cc1c[nH]c2ccccc12)(NCc1cc2ccccc2o1)C(=O)NCC(O)c1ccccc1 (stereo not shown) [compound 73, 2-[(Benzofuran-2-ylmethyl)-amino]-N-(2-hydroxy-2-phenyl-ethyl)-3-(1H-indol-3-yl)-2-methyl-propionamide] | 1230 nM
31 | CC(Cc1c[nH]c2ccccc12)(NCc1cc2ccccc2o1)C(=O)NC1(c2cccs2)CCCCC1 (stereo not shown) [compound 160, 2-[(Benzofuran-2-ylmethyl)-amino]-3-(1H-indol-3-yl)-2-methyl-N-(1-thiophen-2-yl-cyclohexyl)-propionamide] | > 10000 nM
32 | CC(Cc1c[nH]c2ccccc12)(NCc1cc2ccccc2o1)C(=O)NCCN1CCNC1=O (stereo not shown) [compound 86, 2-[(Benzofuran-2-ylmethyl)-amino]-3-(1H-indol-3-yl)-2-methyl-N-[2-(2-oxo-imidazolidin-1-yl)-ethyl]-propionamide] | > 10000 nM
33 | CC(Cc1c[nH]c2ccccc12)(NCc1cc2ccccc2o1)C(=O)NCc1ccc(F)cc1F (stereo not shown) [compound 181, 2-[(Benzofuran-2-ylmethyl)-amino]-N-(2,4-difluoro-benzyl)-3-(1H-indol-3-yl)-2-methyl-propionamide] | 269 nM
34 | CC(Cc1c[nH]c2ccccc12)(NCc1cc2ccccc2o1)C(=O)NCCN1CCNCC1 (stereo not shown) [compound 147, 2-[(Benzofuran-2-ylmethyl)-amino]-3-(1H-indol-3-yl)-2-methyl-N-(2-piperazin-1-yl-ethyl)-propionamide] | > 10000 nM
35 | CC(Cc1c[nH]c2ccccc12)(NCc1cc2ccccc2o1)C(=O)NC1CCCCC1 (stereo not shown) [compound 26, 2-[(Benzofuran-2-ylmethyl)-amino]-N-cyclohexyl-3-(1H-indol-3-yl)-2-methyl-propionamide] | 1010 nM
36 | CC(Cc1c[nH]c2ccccc12)(NCc1cc2ccccc2o1)C(=O)NCc1ccc(F)cc1 (stereo not shown) [compound 61, 2-[(Benzofuran-2-ylmethyl)-amino]-N-(4-fluoro-benzyl)-3-(1H-indol-3-yl)-2-methyl-propionamide] | 61 nM
37 | CC(NC(=O)C(C)(Cc1c[nH]c2ccccc12)NCc1cc2ccccc2o1)c1cccnc1 (stereo not shown) [compound 44, 2-[(Benzofuran-2-ylmethyl)-amino]-3-(1H-indol-3-yl)-2-methyl-N-(1-pyridin-3-yl-ethyl)-propionamide] | 151 nM
